Experiments:
[1] = tested on: carrageenan induced edema; assay: carrageenan induced edema of the rat hindpaw (plethysmometer); type: in vivo; conditions: for carrageenan induced edema, percentage increase in hindpaw volume: 10 mg/kg i.m.
Experimental: Male Sprague-Dawley rats (260-300 g for s.c. injected and 340-380 g for i.c.v. injected) were used (B&K Universal A B, Sollentuna, Sweden). The animals arrived at least one week before experiments and were housed three-four per cage (except animals provided with i.c.v. cannulas that were housed individually) with free access to food (R36, Ewos, Södertälje, Sweden) and water. The light schedule was a 12/12 h light/dark cycle, and ambient temperature was 20±2° C.
Oxytocin and the oxytocin antagonist (1-deamino-2-D-Tyr-(OEt)-4-Thr-8-Orn-oxytocin) (Ferring, Malmö, Sweden) were dissolved in physiological saline and injected in a volume of 1 ml/kg s.c. in the dorsal neck. Dexamethasone (Decadron®, Merck, Sharp & Dome, USA) was administered intramuscularly (i.m.). Oxytocin given i.c.v. was dissolved in a volume of 5 μl physiological saline and slowly injected over a period of 1 minute through the i.c.v. guide cannula via a 25 G stain-less-steel injection needle connected to a 10 μl Hamilton syringe via a polyethylene tube. Controls received saline in the same amounts.
The model of inflammation used, the carrageenan induced edema, is a commonly used model for studies of inflammation and for testing novel anti-inflammatory drugs (Winter C A, Risley E A, Nuss G W. Carrageenan-induced edema in hind paw of the rat as an assay for anti-inflammatory drugs. Proc Soc Exp Biol Med 1962; 111:544-7). To produce acute inflammation, carrageenan, 2 mg in 0.1 ml saline, was injected s.c. into the plantar region of the rat right hindpaw.
The rats were treated s.c. with oxytocin (1.0, 10, 100 or 1000 μg/kg (n=8 in each group) or saline (n=8+8) immediately before the carrageenan injection. The edema of the right hindpaw was measured (volume in ml) using a plethysmometer (Ugo Basile, type 7150, Florence, Italy) before treatment, half an hour after, one hour after, and then every hour up to 6 or 10 hours after treatment.
The results are presented as means±SD. Statistical analysis was performed by means of a 1-way ANOVA, followed by Fisher's test for post-hoc comparisons. In the analysis of myeloperoxidase accumulation, a Student's t-test was used. P-values of 0.05 or less were regarded as statistically significant.
The rats were treated s.c. with oxytocin (1000 μg/kg) and the oxytocin antagonist (1000 μg/kg) (the antagonist was given 30 minutes before oxytocin) (n=8), the oxytocin antagonist alone (1000 μg/kg) (n=8) or saline (n=8) immediately before the carrageenan injection. Measurements as in Example 1.
The rats were treated i.c.v. with oxytocin (1.0 μg/kg) (n=6) or saline (n=7) immediately before the carrageenan injection. Measurements as in Example 1. The animals were anaesthetised with sodiumpentobarbital (50 mg/kg) (Apoteksbolaget, Sweden) injected intraperitoneally (i.p.). The scull was uncovered, a hole was drilled in the right parietal bone and a guide cannula (21 G) was fixed stereotactically to the scull by means of acrylic dental cement. The coordinates were 1.00 mm posterior and 1.30 mm lateral to the bregma. […] The injection needles (25 G) reached 3.80 mm below the dura mater, with the tip of the needle in the right lateral ventricle. The animals were allowed one week of recovery after the operation. At the end of the experiment, the placement of the guide cannula was checked by injection of 2 μl of toluidine blue.
The rats were treated i.m. with dexamethasone (10 mg/kg) (n=6) or saline (n=6) immediately before the carrageenan injection. The edema of the right hindpaw was measured using the plethysmometer before treatment, and at 2, 4 and 6 hours after treatment.

[2] = tested on: ischaemic musculocutaneous skin flaps; conditions: antagonist 1 mg/kg s.c.; previously shown by the inventors; cited from earlier work

## C[C@@H]1C[C@H]2[C@@H]3CCC4=CC(=O)C=C[C@]4(C)[C@@]3(F)[C@@H](O)C[C@]2(C)[C@@]1(O)C(=O)CO [Dexamethasone]
[1]; 2 hours, saline 48±10%, p<0.05
  carrageenan induced edema, percentage increase in hindpaw volume: 35±9.3%
[1]; 4 hours, saline 78±12%, p<0.05
  carrageenan induced edema, percentage increase in hindpaw volume: 54±14%
[1]; 6 hours, saline 105±11%, p<0.01
  carrageenan induced edema, percentage increase in hindpaw volume: 71±15%

## 1-deamino-2-D-Tyr-(OEt)-4-Thr-8-Orn-oxytocin [oxytocin antagonist]
[2]
  antagonism of the oxytocin (1 mg/kg s.c.) effect on skin flap survival: abolished
[1]; antagonist 1000 μg/kg s.c. 30 minutes before oxytocin
  abolition of the oxytocin (1000 μg/kg s.c.) induced effect on carrageenan induced edema: did not abolish
[1]; antagonist 1000 μg/kg s.c. administered alone
  effect on carrageenan induced edema: did not induce any effect
